Experimental data from paper PMC7019903 (Viruses, 2020).
Where two headings read alike, the source gives them in different places.

What was measured:
[1] = test system: Hantaan (HTNV) (strain 76–118); assay: microbe, parasite or virus in culture; format: cell-based, Hantaan virus; conditions: for EC50: read-out: HTNV EC50
in vitro [2] = conditions: African green monkey
in vitro [3] = conditions: human
in vitro [4] = conditions: Mesocricetus auratus (hamster)
in vitro [5] = conditions: Bos taurus (cattle)
in vitro [6] = conditions: Cercopithecus aethiops (monkey)
HTNV [7] = format: cell-based, Hantaan virus
HTNV [8] = conditions: read-out: EC50 against HTNV; cited from earlier work
[9] = Orthohantavirus hantanense, Vero C1008, 168 h

| SMILES | EC50 [1, 9] | CC50 (in vitro [2]) | CC50 (in vitro [3]) | CC50 (in vitro [4]) | CC50 (in vitro [5]) | CC50 (in vitro [6]) | also measured |
| --- | --- | --- | --- | --- | --- | --- | --- |
| Nc1ccc(-n2nnc3cc(Cl)c(Cl)cc32)cc1 [1a] | > 30 µM | > 30 µM | ≥ 100 µM | > 100 µM | – | – | – |
| CC(=O)Nc1ccc(-n2nnc3cc(Cl)c(Cl)cc32)cc1 [1b] | > 20 µM | 20 µM | – | 53 µM | – | – | – |
| CCC(=O)Nc1ccc(-n2nnc3cc(Cl)c(Cl)cc32)cc1 [1c] | > 20 µM | 20 µM | – | 54 µM | ≥ 100 µM | – | – |
| CCCC(=O)N(C(=O)CCC)c1ccc(-n2nnc3cc(Cl)c(Cl)cc32)cc1 [1e] | > 25 µM | 25 µM | – | 16 µM | – | – | – |
| Cc1ccc(C(=O)Nc2ccc(-n3nnc4cc(Cl)c(Cl)cc43)cc2)cc1 [1f] | > 30 µM | > 30 µM | – | ≥ 100 µM | – | – | – |
| O=C(Nc1ccc(-n2nnc3cc(Cl)c(Cl)cc32)cc1)c1ccc(Cl)cc1 [1g] | ≥ 30 µM | > 30 µM | – | > 100 µM | – | ≥ 100 µM | – |
| O=C(Nc1ccc(-n2nnc3cc(Cl)c(Cl)cc32)cc1)c1ccc([N+](=O)[O-])cc1 [1h] | 21 µM | > 30 µM | – | 96 µM | – | – | – |
| COc1ccc(C(=O)Nc2ccc(-n3nnc4cc(Cl)c(Cl)cc43)cc2)cc1 [1i] | > 30 µM | > 30 µM | – | > 100 µM | – | – | – |
| COc1cc(C(=O)Nc2ccc(-n3nnc4cc(Cl)c(Cl)cc43)cc2)cc(OC)c1OC [1j] | > 30 µM | > 30 µM | – | > 100 µM | – | – | – |
| Nc1ccc(-n2nc3cc(Cl)c(Cl)cc3n2)cc1 [2a] | > 30 µM | > 30 µM | – | > 100 µM | – | ≥ 100 µM | – |
| CC(=O)Nc1ccc(-n2nc3cc(Cl)c(Cl)cc3n2)cc1 [2b] | > 30 µM | > 30 µM | – | > 100 µM | – | – | – |
| CCC(=O)Nc1ccc(-n2nc3cc(Cl)c(Cl)cc3n2)cc1 [2c] | > 30 µM | > 30 µM | – | > 100 µM | – | – | – |
| CCC(=O)N(C(=O)CC)c1ccc(-n2nc3cc(Cl)c(Cl)cc3n2)cc1 [2d] | > 30 µM | > 30 µM | – | 26 µM | 73 µM | ≥ 100 µM | – |
| CCCC(=O)N(C(=O)CCC)c1ccc(-n2nc3cc(Cl)c(Cl)cc3n2)cc1 [2e] | > 30 µM | > 30 µM | – | 62 µM | – | ≥ 100 µM | – |
| Cc1ccc(C(=O)Nc2ccc(-n3nc4cc(Cl)c(Cl)cc4n3)cc2)cc1 [2f] | 22 µM | > 30 µM | – | > 100 µM | – | – | – |
| O=C(Nc1ccc(-n2nc3cc(Cl)c(Cl)cc3n2)cc1)c1ccc(Cl)cc1 [2g] | > 30 µM | > 30 µM | – | > 100 µM | – | 95 µM | – |
| O=C(Nc1ccc(-n2nc3cc(Cl)c(Cl)cc3n2)cc1)c1ccc([N+](=O)[O-])cc1 [2h] | > 30 µM | > 30 µM | – | > 100 µM | – | – | – |
| COc1ccc(C(=O)Nc2ccc(-n3nc4cc(Cl)c(Cl)cc4n3)cc2)cc1 [2i] | > 30 µM | > 30 µM | ≥ 100 µM | > 100 µM | – | – | – |
| COc1cc(C(=O)Nc2ccc(-n3nc4cc(Cl)c(Cl)cc4n3)cc2)cc(OC)c1OC [2j] | ≤ 5 µM | > 30 µM | – | 35 µM | – | – | Selectivity Index [1]: > 7.5; EC50 [1]: 4 µM; effect on viral titer (result in words) (HTNV [7]): significant reduction of viral titer; reduction of viral titer (HTNV [7]): 2.14 log10 |

| SMILES | EC50 [1, 9] | CC50 (in vitro [2]) | CC50 (in vitro [3]) | CC50 (in vitro [4]) | CC50 (in vitro [5]) | CC50 (in vitro [6]) | also measured |
| --- | --- | --- | --- | --- | --- | --- | --- |
| CCNC(=O)Nc1ccc(-n2nc3cc(Cl)c(Cl)cc3n2)cc1 [2k] | 26 µM | > 30 µM | – | > 100 µM | – | – | – |
| CCCNC(=O)Nc1ccc(-n2nc3cc(Cl)c(Cl)cc3n2)cc1 [2l] | ≤ 5 µM | 30 µM | – | 40 µM | – | – | Selectivity Index [1]: 6; EC50 [1]: 5 µM; effect on viral titer (result in words) (HTNV [7]): significant reduction of viral titer |
| CCCCNC(=O)Nc1ccc(-n2nc3cc(Cl)c(Cl)cc3n2)cc1 [2m] | > 30 µM | > 30 µM | – | > 100 µM | – | 95 µM | – |
| O=C(Nc1ccc(-n2nc3cc(Cl)c(Cl)cc3n2)cc1)NC1CCCCC1 [2n] | ≤ 5 µM | > 30 µM | – | 71 µM | – | – | Selectivity Index [1]: > 7.5; EC50 [1]: 4 µM; effect on viral titer (result in words) (HTNV [7]): significant reduction of viral titer |
| Cc1ccc(C(=O)Nc2ccc(-n3nc4ccccc4n3)cc2)cc1 [3f, N-(4-(2H-benzo[d][1,2,3]triazol-2-yl)phenyl)-4-methylbenzamide] | > 30 µM | > 30 µM | > 100 µM | > 100 µM | > 100 µM | > 100 µM | melting point: 266 to 268 °C |
| COc1cc(C(=O)Nc2ccc(-n3nc4ccccc4n3)cc2)cc(OC)c1OC [3j, N-(4-(2H-benzo[d][1,2,3]triazol-2-yl)phenyl)-3,4,5-trimethoxybenzamide] | > 30 µM | > 30 µM | > 100 µM | > 100 µM | > 100 µM | > 100 µM | melting point: 227 to 229 °C |
| CCNC(=O)Nc1ccc(-n2nc3ccccc3n2)cc1 [3k] | > 30 µM | > 30 µM | – | > 100 µM | > 100 µM | > 100 µM | – |
| CCCNC(=O)Nc1ccc(-n2nc3ccccc3n2)cc1 [3l] | > 30 µM | > 30 µM | > 100 µM | > 100 µM | > 100 µM | > 100 µM | – |
| CCCCNC(=O)Nc1ccc(-n2nc3ccccc3n2)cc1 [3m] | > 30 µM | > 30 µM | > 100 µM | > 100 µM | > 100 µM | > 100 µM | – |
| O=C(Nc1ccc(-n2nc3ccccc3n2)cc1)NC1CCCCC1 [3n] | > 30 µM | > 30 µM | > 100 µM | > 100 µM | > 100 µM | 95 µM | – |
| Cc1ccc(C(=O)Nc2ccc(-n3nc4cc(C)c(C)cc4n3)cc2)cc1 [4f, N-(4-(5,6-dimethyl-2H-benzo[d][1,2,3]triazol-2-yl)phenyl)-4-methylbenzamide] | > 30 µM | > 30 µM | > 100 µM | > 100 µM | > 100 µM | > 100 µM | melting point: 295 to 296 °C |
| COc1cc(C(=O)Nc2ccc(-n3nc4cc(C)c(C)cc4n3)cc2)cc(OC)c1OC [4j, N-(4-(5,6-dimethyl-2H-benzo[d][1,2,3]triazol-2-yl)phenyl)-3,4,5-trimethoxybenzamide] | > 30 µM | > 30 µM | – | > 100 µM | > 100 µM | > 100 µM | melting point: 272 to 273 °C |
| CCNC(=O)Nc1ccc(-n2nc3cc(C)c(C)cc3n2)cc1 [4k] | > 30 µM | > 30 µM | > 100 µM | > 100 µM | > 100 µM | > 100 µM | – |
| CCCNC(=O)Nc1ccc(-n2nc3cc(C)c(C)cc3n2)cc1 [4l] | > 30 µM | > 30 µM | > 100 µM | > 100 µM | > 100 µM | > 100 µM | – |
| CCCCNC(=O)Nc1ccc(-n2nc3cc(C)c(C)cc3n2)cc1 [4m] | > 30 µM | > 30 µM | > 100 µM | > 100 µM | > 100 µM | > 100 µM | – |
| Cc1cc2nn(-c3ccc(NC(=O)NC4CCCCC4)cc3)nc2cc1C [4n] | > 30 µM | > 30 µM | > 100 µM | > 100 µM | > 100 µM | 95 µM | – |
| C#Cc1ncn([C@@H]2O[C@H](CO)[C@@H](O)[C@H]2O)n1 [ETAR, 1-beta-d-ribofuranosyl-3-ethynyl-[1,2,4] triazole] | – | – | – | – | – | – | EC50 (HTNV [8]): 10 µM |
| NC(=O)c1nc(F)c[nH]c1=O [Favipiravir] | – | – | – | – | – | – | EC50 (HTNV [8]): 151 µM |
| NC(=O)c1ncn([C@@H]2O[C@H](CO)[C@@H](O)[C@H]2O)n1 [RBV, Ribavirin, reference compound] | 37 µM | > 100 µM | – | – | – | – | Selectivity Index [1]: > 2; effect on viral titer (result in words) (HTNV [7]; 50 µM): significant decline in viral titer |
